Measurements: patent US9546393B2, “Mass spectrometry quantitation of P450 isoforms in hepatocytes” (DH Technologies Development Pte. Ltd., priority 2009, dated 2017)

Tests used:
CYP 2B6 = CYP 2B6 induction in treated primary human hepatocytes (RNA assay, enzyme activity assay, LC-MSMS protein assay; FIG. 6); type: cell-based; conditions: 72 hours, 3-MC 2 μM
Method: Flow rate was 700 μL/min.
The PB is a prototypical inducer for CYP 2B6, by CAR nuclear receptor activation.

CYP 1A2 [1] = experiment: RNA assay (mRNA by qRT-PCR, Taqman) for CYP 1A2 in treated human hepatocytes; type: cell-based; conditions: primary human hepatocytes, 72 hours; 3-MC 2 μM; FIG. 7
CYP 3A4 = CYP 3A4 induction in treated primary human hepatocytes (RNA assay, enzyme activity assay, LC-MSMS protein assay; FIG. 8); conditions: 72 hours, 3-MC 2 μM, PB 1 mM
CYP 1A2 [2] = conditions: primary human hepatocytes, 72 hours; PB 1 mM, RIF 10 μM; FIG. 7

In the case of Cc1ccc2cc3c(ccc4ccccc43)c3c2c1CC3 [3-MC, 3-methylcholanthrene], the “changes in expression of CYP 2B6 (induction)” value (CYP 2B6) is reported as “induces basal levels”, the “CYP 1A2 RNA level in RNA assay” value (CYP 1A2 [1]) is reported as “very high levels of RNA” and the “changes in expression of CYP 3A4 (induction)” value (CYP 3A4) is reported as “minimally induces”.

For CCC1(c2ccccc2)C(=O)NC(=O)NC1=O [PB, phenobarbital], the “changes in expression of CYP 1A2 (induction)” value (CYP 1A2 [2]) was “basal levels of 1A2, if any” and the “changes in expression of CYP 3A4 (induction)” value (CYP 3A4) was “significantly induces”.
